In US12590091B2, “1H-pyrrolo[3,2-C]pyridine and 1H-pyrrolo[2,3-C]pyridine derivatives as TLR9 inhibitors for the treatment of fibrosis” (BRISTOL-MYERS SQUIBB COMPANY, priority 2020, dated 2026):

Legend:
human TLR9 = molecular target: T1, human TLR9 (Homo sapiens, UniProt Q9NR96); test: TLR9 inhibition reporter assay (HEK-Blue cells, SEAP reporter); format: cell-based; conditions: HEK-Blue cells overexpressing human TLR9, stimulated with ODN2006 5 nM, 22 hour incubation
T1 construct: host or cells: HEK-Blue cells
T1 sequence (Q9NR96 26-1032): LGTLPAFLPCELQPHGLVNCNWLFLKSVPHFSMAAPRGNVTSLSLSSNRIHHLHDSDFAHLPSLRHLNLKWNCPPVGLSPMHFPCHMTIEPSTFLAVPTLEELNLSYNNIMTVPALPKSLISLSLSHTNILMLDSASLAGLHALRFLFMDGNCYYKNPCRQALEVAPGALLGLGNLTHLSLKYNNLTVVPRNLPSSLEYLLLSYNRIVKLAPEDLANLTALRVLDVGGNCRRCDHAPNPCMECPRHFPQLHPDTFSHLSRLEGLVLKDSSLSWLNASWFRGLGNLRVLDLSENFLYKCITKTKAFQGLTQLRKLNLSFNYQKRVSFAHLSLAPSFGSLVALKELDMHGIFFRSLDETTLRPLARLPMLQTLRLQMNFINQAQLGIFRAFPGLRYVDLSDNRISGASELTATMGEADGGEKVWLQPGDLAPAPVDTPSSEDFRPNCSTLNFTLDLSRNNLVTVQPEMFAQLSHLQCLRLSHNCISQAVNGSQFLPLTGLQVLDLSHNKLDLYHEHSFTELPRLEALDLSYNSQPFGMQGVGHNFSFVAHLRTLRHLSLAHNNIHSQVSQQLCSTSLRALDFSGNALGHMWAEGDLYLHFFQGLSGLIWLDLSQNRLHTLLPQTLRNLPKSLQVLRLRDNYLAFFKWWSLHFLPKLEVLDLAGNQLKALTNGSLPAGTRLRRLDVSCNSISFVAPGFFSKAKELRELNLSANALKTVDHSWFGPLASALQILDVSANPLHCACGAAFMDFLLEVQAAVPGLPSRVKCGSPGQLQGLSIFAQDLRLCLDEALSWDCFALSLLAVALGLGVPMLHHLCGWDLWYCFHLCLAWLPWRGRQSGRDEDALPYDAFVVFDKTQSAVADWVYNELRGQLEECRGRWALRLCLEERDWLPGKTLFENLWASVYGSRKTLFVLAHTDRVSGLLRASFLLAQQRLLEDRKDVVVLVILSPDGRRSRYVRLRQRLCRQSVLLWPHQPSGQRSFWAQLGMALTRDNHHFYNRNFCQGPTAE
Method in brief: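 Compound dose-response (0.05 nM–50 μM final) on agonist-stimulated human TLR9 HEK-Blue cells, 25,000/well, incubated 22 h at 37 °C, 5% CO2. Readout was secreted alkaline phosphatase under an IFN-β minimal promoter with NF-κB/AP-1 sites; inhibition expressed relative to DMSO and reference-inhibitor controls.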

human TLR8 = molecular target: T2, human TLR8 (Homo sapiens, UniProt Q9NR97); test: TLR8 inhibition reporter assay (HEK-Blue cells, SEAP reporter); format: cell-based; conditions: HEK-Blue cells overexpressing human TLR8, stimulated with R848 15.9 μM, 22 hour incubation
T2 construct: host or cells: HEK-Blue cells
T2 sequence (Q9NR97 27-1041): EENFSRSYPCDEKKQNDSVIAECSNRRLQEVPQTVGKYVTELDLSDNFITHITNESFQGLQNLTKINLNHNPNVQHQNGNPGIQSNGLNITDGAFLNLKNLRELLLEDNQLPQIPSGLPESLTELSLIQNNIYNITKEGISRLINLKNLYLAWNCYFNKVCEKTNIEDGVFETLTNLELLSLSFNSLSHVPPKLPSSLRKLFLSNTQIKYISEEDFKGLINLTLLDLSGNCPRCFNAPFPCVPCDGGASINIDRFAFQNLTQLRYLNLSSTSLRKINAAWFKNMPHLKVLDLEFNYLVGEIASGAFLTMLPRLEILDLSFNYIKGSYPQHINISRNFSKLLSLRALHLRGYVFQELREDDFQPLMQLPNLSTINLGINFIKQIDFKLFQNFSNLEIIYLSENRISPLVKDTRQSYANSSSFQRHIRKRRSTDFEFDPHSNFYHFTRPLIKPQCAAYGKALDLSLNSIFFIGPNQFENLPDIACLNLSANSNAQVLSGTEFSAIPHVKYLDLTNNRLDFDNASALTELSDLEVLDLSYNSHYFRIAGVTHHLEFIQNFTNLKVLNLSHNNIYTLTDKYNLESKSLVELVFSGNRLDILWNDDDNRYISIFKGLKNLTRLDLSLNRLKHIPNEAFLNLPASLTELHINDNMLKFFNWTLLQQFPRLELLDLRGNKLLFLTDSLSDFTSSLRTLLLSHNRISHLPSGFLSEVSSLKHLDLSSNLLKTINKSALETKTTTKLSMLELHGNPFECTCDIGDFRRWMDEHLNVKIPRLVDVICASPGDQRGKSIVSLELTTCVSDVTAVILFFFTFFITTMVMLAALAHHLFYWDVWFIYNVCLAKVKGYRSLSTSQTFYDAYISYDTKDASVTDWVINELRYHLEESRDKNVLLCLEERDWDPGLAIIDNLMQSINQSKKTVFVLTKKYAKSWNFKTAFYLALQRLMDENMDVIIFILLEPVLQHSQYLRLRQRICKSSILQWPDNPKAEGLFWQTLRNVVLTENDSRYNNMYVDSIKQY
Procedure: TLR7/8/9 Inhibition Reporter Assays
HEK-Blue™-cells (Invivogen) overexpressing human TLR7, TLR8 or TLR9 receptors were used for screening inhibitors of these receptors using an inducible SEAP (secreted embryonic alkaline phosphatase) reporter gene under the control of the IFN-β minimal promoter fused to five NF-κB and AP-1-binding sites. Briefly, cells are seeded into Greiner 384 well plates (15000 cells per well for TLR7, 20,000 for TLR8 and 25,000 for TLR9) and then treated with test compounds in DMSO to yield a final dose response concentration range of 0.05 nM-50 μM. After a 30 minute compound pre-treatment at room temperature, the cells are then stimulated with a TLR7 ligand (gardiquimod at a final concentration of 7.5 μM), TLR8 ligand (R848 at a final concentration of 15.9 μM) or TLR9 ligand (ODN2006 at a final concentration of 5 nM) to activate NF-κB and AP-1 which induce the production of SEAP. After a 22 hour incubation at 37° C., 5% CO2, SEAP levels are determined with the addition of HEK-Blue™ Detection reagent (Invivogen), a cell culture medium that allows for detection of SEAP, according to manufacturer's specifications. The percent inhibition is determined as the % reduction in the HEK-Blue signal present in wells treated with agonist plus DMSO alone compared to wells treated with a known inhibitor.

| IC50 (human TLR9) [µM] | IC50 (human TLR8) [µM] | SMILES |
| --- | --- | --- |
| 0.079 | 2.7 | Cc1nc(-c2cc(F)c(N3CCNCC3)cc2F)cc2c1cc(-c1ccc(S(C)(=O)=O)cc1)n2C [Example 43, 6-(2,5-Difluoro-4-(piperazin-1-yl)phenyl)-1,4-dimethyl-2-(4-(methylsulfonyl)phenyl)-1H-pyrrolo[3,2-c]pyridine] |
| 0.096 | 1.2 | Cc1nc(-c2ccc(CN3CCN(CC(C)(C)O)CC3)cc2)cc2c1cc(-c1ccc(S(C)(=O)=O)cc1)n2C [Example 44, 1-(4-(4-(1,4-Dimethyl-2-(4-(methylsulfonyl)phenyl)-1H-pyrrolo[3,2-c]pyridin-6-yl)benzyl)piperazin-1-yl)-2-methylpropan-2-ol] |
| 0.077 | > 25 | Cc1nc(-c2ccc(N3CCN(CCCO)CC3)cc2)cc2c1cc(-c1ccc(S(=O)(=O)C3CC3)cc1)n2C [Example 47, 3-(4-(4-(2-(4-(cyclopropylsulfonyl)phenyl)-1,4-dimethyl-1H-pyrrolo[3,2-c]pyridin-6-yl)phenyl)piperazin-1-yl)propan-1-ol] |
| 0.385 | > 25 | COCCN1CCN(c2ccc(-c3cc4c(cc(-c5ccc(S(=O)(=O)C6CC6)cc5)n4C)c(C)n3)cc2)CC1 [Example 48, 2-(4-(cyclopropylsulfonyl)phenyl)-6-(4-(4-(2-methoxyethyl)piperazin-1-yl)phenyl)-1,4-dimethyl-1H-pyrrolo[3,2-c]pyridine] |
| 0.021 | > 50 | CC(C)CN1CCN(c2ccc(-c3cc4c(cn3)cc(-c3ccc(S(C)(=O)=O)cc3)n4C)cc2)CC1 [Example 53, 6-(4-(4-isobutylpiperazin-1-yl)phenyl)-1-methyl-2-(4-(methylsulfonyl)phenyl)-1H-pyrrolo[3,2-c]pyridine] |
| 0.042 | > 50 | CC(C)N1CCN(c2ccc(-c3cc4c(cn3)cc(-c3ccc(S(C)(=O)=O)cc3)n4C)cc2)CC1 [Example 54, 6-(4-(4-isopropylpiperazin-1-yl)phenyl)-1-methyl-2-(4-(methylsulfonyl)phenyl)-1H-pyrrolo[3,2-c]pyridine] |
| 2.81 | > 50 | Cc1nc(-c2ccc(N3CCN(CCCO)CC3)c(F)c2F)cc2c1cc(-c1ccc(S(C)(=O)=O)cc1)n2C [Example 55, 3-(4-(4-(1,4-dimethyl-2-(4-(methylsulfonyl)phenyl)-1H-pyrrolo[3,2-c]pyridin-6-yl)-2,3-difluorophenyl)piperazin-1-yl)propan-1-ol] |
| 0.27 | 13.2 | Cc1nc(-c2cc(F)c(N3CCN(CCCO)CC3)cc2F)cc2c1cc(-c1ccc(S(C)(=O)=O)cc1)n2C [Example 56, 3-(4-(4-(1,4-dimethyl-2-(4-(methylsulfonyl)phenyl)-1H-pyrrolo[3,2-c]pyridin-6-yl)-2,5-difluorophenyl)piperazin-1-yl)propan-1-ol] |
| 0.046 | 7.5 | Cc1nc(-c2ccc(CN3CCN(CC(C)C)CC3)cc2)cc2c1cc(-c1ccc(S(C)(=O)=O)cc1)n2C [Example 57, 6-(4-((4-isobutylpiperazin-1-yl)methyl)phenyl)-1,4-dimethyl-2-(4-(methylsulfonyl)phenyl)-1H-pyrrolo[3,2-c]pyridine] |
| 0.107 | 17.8 | Cc1nc(-c2ccc(CN3CCN(CCCO)CC3)cc2)cc2c1cc(-c1ccc(S(C)(=O)=O)cc1)n2C [Example 58, 3-(4-(4-(1,4-dimethyl-2-(4-(methylsulfonyl)phenyl)-1H-pyrrolo[3,2-c]pyridin-6-yl)benzyl)piperazin-1-yl)propan-1-ol] |
| 0.772 | 17.2 | Cc1nc(-c2ccc(CN3CCC(C)(O)CC3)cc2)cc2c1cc(-c1ccc(S(C)(=O)=O)cc1)n2C [Example 59, 1-(4-(1,4-dimethyl-2-(4-(methylsulfonyl)phenyl)-1H-pyrrolo[3,2-c]pyridin-6-yl)benzyl)-4-methylpiperidin-4-ol] |
| 0.064 | 4.6 | Cc1nc(-c2ccc(CN3CCN(CCC(C)(C)O)CC3)cc2)cc2c1cc(-c1ccc(S(C)(=O)=O)cc1)n2C [Example 60, 4-(4-(4-(1,4-dimethyl-2-(4-(methylsulfonyl)phenyl)-1H-pyrrolo[3,2-c]pyridin-6-yl)benzyl)piperazin-1-yl)-2-methylbutan-2-ol] |
| 0.109 | 0.86 | Cc1nc(-c2ccc(CN3C[C@@H]4CC[C@H]3CN4CCC(C)(C)O)cc2)cc2c1cc(-c1ccc(S(C)(=O)=O)cc1)n2C [Example 61, 4-((1S,4S)-5-(4-(1,4-dimethyl-2-(4-(methylsulfonyl)phenyl)-1H-pyrrolo[3,2-c]pyridin-6-yl)benzyl)-2,5-diazabicyclo[2.2.2]octan-2-yl)-2-methylbutan-2-ol] |
| 0.078 | > 25 | Cc1nc(-c2ccc(N3CCN(CCO)CC3)c(F)c2)cc2c1cc(-c1ccc(S(C)(=O)=O)cc1)n2C [Example 69, 2-(4-(4-(1,4-dimethyl-2-(4-(methylsulfonyl)phenyl)-1H-pyrrolo[3,2-c]pyridin-6-yl)-2-fluorophenyl)piperazin-1-yl)ethan-1-ol] |
| 0.26 | > 25 | Cc1nc(-c2ccc(N3CCN(C4CCOC4)CC3)c(F)c2)cc2c1cc(-c1ccc(S(C)(=O)=O)cc1)n2C (centres unmarked) [Example 70, 6-(3-fluoro-4-(4-(tetrahydrofuran-3-yl)piperazin-1-yl)phenyl)-1,4-dimethyl-2-(4-(methylsulfonyl)phenyl)-1H-pyrrolo[3,2-c]pyridine] |
| 0.058 | 19.4 | COCCN1C2CCC1CN(c1ccc(-c3cc4c(cc(-c5ccc(S(C)(=O)=O)cc5)n4C)c(C)n3)cc1)C2 [Example 74, 6-(4-(8-(2-methoxyethyl)-3,8-diazabicyclo[3.2.1]octan-3-yl)phenyl)-1,4-dimethyl-2-(4-(methylsulfonyl)phenyl)-1H-pyrrolo[3,2-c]pyridine] |
